Biological target: GABAB receptor (Homo sapiens, UniProt Q9UBS5)
Test: GABAB receptor agonist or partial agonist activity by binding, electrophysiology, cAMP and/or Ca2+ assay methods (Examples 83-86)
Format: cell-based
Experimental: An assay using rat cerebral cortex membranes was used to determine the affinity of GABAB receptor ligands for the GABAB receptor.
An assay buffer of 50 mM Tris pH 7.4 was prepared with 100 μM of isoguvacine, to block GABAA interactions. The assay buffer with isoguvacine was used for dilution of membranes, compounds, and radiolabel.
Rat cerebral cortex membranes were diluted in assay buffer at 1 mg/mL and aliquoted into a 96-well plate at 900 μL/well. Buffer or test compound were added at 20-times final concentration in the buffer at 50 μL/well. Membranes and test compounds or buffer were incubated for 10 min. at room temperature. Radiolableled [S—(R*,R*)]-[3-[[1-(3,4-dichlorophenyl)ethyl]amino]-2-hydroxypropyl](cyclohexylmethyl) phosphinic acid (CGP54626) was then added at 50 μL/well in the buffer at 1-10 nM concentration in 50 μl. […] The assay mixture was filtered using Brandell filtration apparatus and GFB filters, washed twice with 3 mL of 4° C., 50 mM Tris pH 7.4, buffer without isoguvacine. The filters were then dried at room temperature and the dried filters punched out and placed in individual vials. Three (3) mL of scintillation fluid was added to each vial and the radiolabel counted on the scintillation counter. The inverse amount of radiolabel was indicative of binding of a test compound to the GABAB receptor.
The following procedure was used to determine the level of intracellular cAMP. Recombinant HEK cells expressing the GABAB R1a2 receptor were used in the experiments. cAMP levels were measured using a cAMP XS^+ HitHunter™ Chemiluminescence Assay Kit (90-0075-02, GE Healthcare Biosciences Corp.). Cells were seeded overnight at 5,000 cells per well, in black, clear bottom 96-well plates. The following morning, cells were washed twice with 100 μL PBS per well. Forskolin was weighed out and dissolved in DMSO to a final concentration 100 mM. One-hundred (100) μM forskolin solutions were prepared in PBS with and without test compound at 1-times final concentration. Thirty (30) μL of the test solutions were added to the wells and incubated for 1 h at room temperature. The cAMP concentration was determined according to the protocol described in the cAMP assay kit, maintaining the plate at room temperature and in the dark. […] Each well was read for 6 seconds. The untransformed data was then analyzed.
The following procedure was used to determine the GABAB receptor agonist activity of a compound as reflected by activation of Ca^2+ signaling. HEK TREx cells expressing GABABR1a2 under tetracycline induction control, and Gqi chimeric protein (expressed constitutively), allowing GABABR coupling through the Ca^2+ signaling pathway were used in the experiments.
Cells were seeded in media containing tetracycline overnight at 100,000 cells/well, in black, clear-bottom, 96-well plates. The following morning, cells were washed twice with 100 μL HBSS buffer per well. Fluorescent Ca^2+ indicator dye was prepared using the materials and procedure described in the F362056 Fluo-4 NW Calcium Assay Kit (Invitrogen, Carlsbad, Calif.). Ten (10) mL of kit buffer and 100 μl of kit Probenecid were added to individual kit dye vials, and rolled back and forth several times to dissolve the dye. Cells were then loaded into the dye solution at 50 μL per well. The cells and dye were incubated for 30 min at 37° C., and then incubated for an additional 30 min at room temperature in the dark. Test compounds are dissolved in HBSS buffer at twice final concentration. Duplicate wells were used for each unique condition. Solution containing the test compound was added to the wells using a FLEXStation II (Molecular Devices, Sunnyvale, Calif.). Using the instrument in kinetic mode in which each well was read every 2 sec over a total collection time of 50 sec fluorescence was measured using an excitation wavelength 494 nm and a detection wavelength of 516 nm. A normalized fluorescence value for each well was calculated using the following procedure.

Chain of GABAB receptor (Q9UBS5 20-961): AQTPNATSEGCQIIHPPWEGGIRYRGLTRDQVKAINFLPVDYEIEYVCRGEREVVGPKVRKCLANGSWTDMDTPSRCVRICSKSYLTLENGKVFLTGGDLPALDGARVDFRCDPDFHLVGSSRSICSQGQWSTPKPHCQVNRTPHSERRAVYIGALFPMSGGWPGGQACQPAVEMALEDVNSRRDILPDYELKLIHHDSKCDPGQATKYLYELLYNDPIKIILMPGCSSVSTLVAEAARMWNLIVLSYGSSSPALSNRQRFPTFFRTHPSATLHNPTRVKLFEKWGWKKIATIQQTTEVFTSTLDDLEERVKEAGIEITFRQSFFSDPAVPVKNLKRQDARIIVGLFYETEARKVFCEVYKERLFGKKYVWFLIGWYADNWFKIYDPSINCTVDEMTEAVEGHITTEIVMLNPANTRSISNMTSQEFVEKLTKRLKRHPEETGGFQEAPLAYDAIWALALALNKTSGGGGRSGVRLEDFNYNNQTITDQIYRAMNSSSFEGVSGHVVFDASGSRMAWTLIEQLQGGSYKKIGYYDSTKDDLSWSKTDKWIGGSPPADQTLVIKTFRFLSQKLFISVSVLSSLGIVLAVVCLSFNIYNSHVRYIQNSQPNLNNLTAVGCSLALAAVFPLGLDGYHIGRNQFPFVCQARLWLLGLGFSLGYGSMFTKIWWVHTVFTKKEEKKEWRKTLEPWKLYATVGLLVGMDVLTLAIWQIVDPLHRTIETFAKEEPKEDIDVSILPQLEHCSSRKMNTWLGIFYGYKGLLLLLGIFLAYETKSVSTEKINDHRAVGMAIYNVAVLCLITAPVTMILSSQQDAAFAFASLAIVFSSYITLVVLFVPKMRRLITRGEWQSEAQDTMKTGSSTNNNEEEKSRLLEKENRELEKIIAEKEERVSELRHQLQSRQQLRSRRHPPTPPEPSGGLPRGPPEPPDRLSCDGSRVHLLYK
Chain of GABAB receptor (O75899 42-941 partner): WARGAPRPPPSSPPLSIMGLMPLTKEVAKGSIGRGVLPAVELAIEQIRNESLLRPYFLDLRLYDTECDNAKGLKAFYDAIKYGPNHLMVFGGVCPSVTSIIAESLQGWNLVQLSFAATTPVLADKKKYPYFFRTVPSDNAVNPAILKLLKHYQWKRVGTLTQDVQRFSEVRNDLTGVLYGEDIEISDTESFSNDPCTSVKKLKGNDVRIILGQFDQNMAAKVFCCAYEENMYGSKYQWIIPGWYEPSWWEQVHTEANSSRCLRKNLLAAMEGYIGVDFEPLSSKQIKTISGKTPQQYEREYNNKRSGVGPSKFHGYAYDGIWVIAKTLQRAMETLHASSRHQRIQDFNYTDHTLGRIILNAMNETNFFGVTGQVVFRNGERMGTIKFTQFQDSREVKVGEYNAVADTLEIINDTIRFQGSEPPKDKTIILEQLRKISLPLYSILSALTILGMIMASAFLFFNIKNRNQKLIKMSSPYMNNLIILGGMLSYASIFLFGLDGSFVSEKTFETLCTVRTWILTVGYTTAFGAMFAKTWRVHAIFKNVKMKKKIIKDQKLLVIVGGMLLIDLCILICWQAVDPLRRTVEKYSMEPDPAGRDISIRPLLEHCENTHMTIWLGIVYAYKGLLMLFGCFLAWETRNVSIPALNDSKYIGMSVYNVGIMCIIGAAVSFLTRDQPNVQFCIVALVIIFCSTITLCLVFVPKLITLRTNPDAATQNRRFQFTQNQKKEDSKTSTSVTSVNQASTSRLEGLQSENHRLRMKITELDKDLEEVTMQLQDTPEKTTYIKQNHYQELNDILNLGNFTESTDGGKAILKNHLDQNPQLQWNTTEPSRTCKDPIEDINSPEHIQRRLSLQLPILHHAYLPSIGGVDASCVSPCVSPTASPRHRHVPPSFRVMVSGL

Row | SMILES | GABAB receptor agonist or partial agonist activity
1 | CN(C(=O)c1ccccc1)c1cc([C@H](CN)CC(=O)O)ccc1Cl.Cl [(3R)-4-amino-3-[4-chloro-3-(N-methylphenylcarbonylamino)phenyl]butanoic acid hydrochloride] | agonist or partial agonist activity
2 | Cl.NC[C@H](CC(=O)O)c1ccc(Cl)c(OCc2ccccc2)c1 [(3R)-4-amino-3-[4-chloro-3-(phenylmethoxy)phenyl]butanoic acid hydrochloride] | agonist or partial agonist activity
3 | Cl.NCc1cccc(-c2cccc([C@H](CN)CC(=O)O)c2)c1 [(3R)-4-amino-3-{3-[3-(aminomethyl)phenyl]phenyl}butanoic acid hydrochloride] | agonist or partial agonist activity
4 | Cl.NC[C@H](CC(=O)O)c1ccc(Cl)c(-c2ccc(CC(=O)O)cc2)c1 [(3R)-4-amino-3-{3-[4-(carboxymethyl)phenyl]-4-chlorophenyl}butanoic acid hydrochloride] | agonist or partial agonist activity
5 | CN(C)c1cccc(-c2cc([C@H](CN)CC(=O)O)ccc2Cl)n1.Cl [(3R)-4-amino-3-{3-[6-(dimethylamino)(2-pyridyl)]-4-chlorophenyl}butanoic acid hydrochloride] | agonist or partial agonist activity
6 | Cc1cc(C(=O)Nc2cc([C@H](CN)CC(=O)O)ccc2Cl)n(C)n1 [(3R)-4-amino-3-{3-[(1,3-dimethylpyrazol-5-yl)carbonylamino]-4-chlorophenyl}butanoic acid] | agonist or partial agonist activity
7 | NC[C@H](CC(=O)O)c1ccc(Cl)c(-c2cncc(C(F)(F)F)c2)c1 [(3R)-4-amino-3-{4-chloro-3-[5-(trifluoromethyl)(3-pyridyl)]phenyl}butanoic acid] | agonist or partial agonist activity
8 | Cl.N#Cc1ccccc1COc1cc([C@H](CN)CC(=O)O)ccc1Cl [(3R)-4-amino-3-{4-chloro-3-[(2-cyanophenyl)methoxy]phenyl}butanoic acid hydrochloride] | agonist or partial agonist activity
9 | Cl.NC[C@H](CC(=O)O)c1ccc(Cl)c(NCc2ccco2)c1 [(3R)-4-amino-3-{4-chloro-3-[(2-furylmethyl)amino]phenyl}butanoic acid hydrochloride] | agonist or partial agonist activity
10 | NC[C@H](CC(=O)O)c1ccc(Cl)c(NCCc2ccccc2)c1 [(3R)-4-amino-3-{4-chloro-3-[(2-phenylethyl)amino]phenyl}butanoic acid] | agonist or partial agonist activity
11 | Cl.NC[C@H](CC(=O)O)c1ccc(Cl)c(NS(=O)(=O)c2ccccn2)c1 [(3R)-4-amino-3-{4-chloro-3-[(2-pyridylsulfonyl)amino]phenyl}butanoic acid hydrochloride] | agonist or partial agonist activity
12 | N#Cc1cccc(C(=O)Nc2cc([C@H](CN)CC(=O)O)ccc2Cl)c1 [(3R)-4-amino-3-{4-chloro-3-[(3-cyanophenyl)carbonylamino]phenyl}butanoic acid] | agonist or partial agonist activity
13 | Cl.N#Cc1cccc(COc2cc([C@H](CN)CC(=O)O)ccc2Cl)c1 [(3R)-4-amino-3-{4-chloro-3-[(3-cyanophenyl)methoxy]phenyl}butanoic acid hydrochloride] | agonist or partial agonist activity
14 | NC[C@H](CC(=O)O)c1ccc(Cl)c(NC(=O)c2cccc(F)c2)c1 [(3R)-4-amino-3-{4-chloro-3-[(3-fluorophenyl)carbonylamino]phenyl}butanoic acid] | agonist or partial agonist activity

Next, values leading:

Row | GABAB receptor agonist or partial agonist activity | SMILES
15 | agonist or partial agonist activity | Cl.NC[C@H](CC(=O)O)c1ccc(Cl)c(Cc2cccc([N+](=O)[O-])c2)c1 [(3R)-4-amino-3-{4-chloro-3-[(3-nitrophenyl)methyl]phenyl}butanoic acid hydrochloride]
16 | agonist or partial agonist activity | NC[C@H](CC(=O)O)c1ccc(Cl)c(NCc2cccnc2)c1 [(3R)-4-amino-3-{4-chloro-3-[(3-pyridylmethyl)amino]phenyl}butanoic acid]
17 | agonist or partial agonist activity | Cl.N#Cc1ccc(COc2cc([C@H](CN)CC(=O)O)ccc2Cl)cc1 [(3R)-4-amino-3-{4-chloro-3-[(4-cyanophenyl)methoxy]phenyl}butanoic acid hydrochloride]
18 | agonist or partial agonist activity | NC[C@H](CC(=O)O)c1ccc(Cl)c(NC(=O)c2ccc([N+](=O)[O-])cc2)c1 [(3R)-4-amino-3-{4-chloro-3-[(4-nitrophenyl)carbonylamino]phenyl}butanoic acid]
19 | agonist or partial agonist activity | CN(Cc1ccccc1)c1cc([C@H](CN)CC(=O)O)ccc1Cl.Cl [(3R)-4-amino-3-{4-chloro-3-[methylbenzylamino]phenyl}butanoic acid hydrochloride]
20 | agonist or partial agonist activity | Cl.NC[C@@H](CC(=O)O)c1ccc(Cl)c(-c2cccnc2)c1 [(3S)-4-amino-3-(4-chloro-3-(3-pyridyl)phenyl)butanoic acid hydrochloride]
21 | agonist or partial agonist activity | Cl.N#Cc1cccc(-c2cc([C@@H](CN)CC(=O)O)ccc2Cl)c1 [(3S)-4-amino-3-[4-chloro-3-(3-cyanophenyl)phenyl]butanoic acid hydrochloride]
22 | agonist or partial agonist activity | Cl.NC[C@@H](CC(=O)O)c1ccc(Cl)c(NCc2ccncc2)c1 [(3S)-4-amino-3-{4-chloro-3-[(4-pyridylmethyl)amino]phenyl}butanoic acid hydrochloride]
23 | agonist or partial agonist activity | Cl.NC[C@H](CC(=O)O)c1ccc(Cl)cc1-c1cccnc1 [Example 8, (3R)-4-Amino-3-[4-chloro-2-(3-pyridyl)phenyl]butanoic acid hydrochloride]
24 | agonist or partial agonist activity | Cl.NC[C@H](CC(=O)O)c1ccc(Cl)cc1C(=O)c1ccccc1 [Example 11, (3R)-4-Amino-3-[4-chloro-2-(phenylcarbonyl)phenyl]butanoic acid hydrochloride]
25 | agonist or partial agonist activity | NC[C@H](CC(=O)O)c1ccc(Cl)c(Nc2ccccc2C(=O)O)c1 [Example 13, 2-({5-[(1R)-2-Amino-1-(carboxymethyl)ethyl]-2-chlorophenyl}amino)benzoic acid]
26 | agonist or partial agonist activity | NC[C@H](CC(=O)O)c1ccc(Cl)c(Oc2cccc(C(=O)O)c2)c1 [Example 22, 3-{5-[(1R)-2-Amino-1-(carboxymethyl)ethyl]-2-chlorophenoxy}benzoic acid]
